According to patent US7951804B2, “Piperidinyl compounds” (Merck Patent GmbH, priority 2003, dated 2011):
Structures can show the parent of a compound that is named as a salt.

Columns and labels:
FXa = FXa (Homo sapiens, UniProt P00742); test: Factor Xa inhibition (FXa-IC50); format: biochemical
Description: The inhibition of factor Xa by the compounds according to the invention and the measurement of the anticoagulant and antithrombotic activity can be determined by conventional in-vitro or in-vivo methods. A suitable method is described, for example, by J. Hauptmann et al. in Thrombosis and Haemostasis 1990, 63, 220-223.
The inhibition of factor Xa can be measured, for example, by the method of T. Hara et al. in Thromb. Haemostas. 1994, 71, 314-319.

TF/FVIIa = TF/FVIIa (Homo sapiens, UniProt P08709); test: TF/factor VIIa inhibition (TF/FVIIa-IC50); format: biochemical
Description: The inhibition of factor VIIa by the compounds according to the invention and the measurement of the anticoagulant and antithrombotic activity can be determined by conventional in-vitro or in-vivo methods. A conventional method for the measurement of the inhibition of factor Vila is described, for example, by H. F. Ronning et al. in Thrombosis Research 1996, 84, 73-81.

TF/FVIIa, sequence (P08709 213-466 limits assumed): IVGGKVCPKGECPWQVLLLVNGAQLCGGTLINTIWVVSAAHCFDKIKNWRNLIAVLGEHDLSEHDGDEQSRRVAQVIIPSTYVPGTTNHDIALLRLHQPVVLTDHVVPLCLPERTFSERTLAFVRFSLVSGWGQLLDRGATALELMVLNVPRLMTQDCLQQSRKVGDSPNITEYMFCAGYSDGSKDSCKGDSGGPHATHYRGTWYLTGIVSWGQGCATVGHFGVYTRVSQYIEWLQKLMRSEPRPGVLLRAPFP
TF/FVIIa, sequence (P08709 61-212 partner limits assumed): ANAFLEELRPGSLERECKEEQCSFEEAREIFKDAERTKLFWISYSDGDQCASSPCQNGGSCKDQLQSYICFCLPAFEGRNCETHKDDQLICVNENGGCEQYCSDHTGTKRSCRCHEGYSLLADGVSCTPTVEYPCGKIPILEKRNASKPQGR
TF/FVIIa, sequence (P13726 33-295 partner): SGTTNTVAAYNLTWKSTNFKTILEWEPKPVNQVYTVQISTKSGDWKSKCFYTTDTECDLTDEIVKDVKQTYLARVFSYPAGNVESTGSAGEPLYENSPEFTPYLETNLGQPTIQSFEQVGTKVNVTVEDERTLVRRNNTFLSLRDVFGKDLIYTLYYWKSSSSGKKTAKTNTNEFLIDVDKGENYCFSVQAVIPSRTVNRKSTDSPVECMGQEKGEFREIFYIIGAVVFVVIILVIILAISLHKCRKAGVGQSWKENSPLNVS
FXa, sequence (P00742 235-488 limits assumed): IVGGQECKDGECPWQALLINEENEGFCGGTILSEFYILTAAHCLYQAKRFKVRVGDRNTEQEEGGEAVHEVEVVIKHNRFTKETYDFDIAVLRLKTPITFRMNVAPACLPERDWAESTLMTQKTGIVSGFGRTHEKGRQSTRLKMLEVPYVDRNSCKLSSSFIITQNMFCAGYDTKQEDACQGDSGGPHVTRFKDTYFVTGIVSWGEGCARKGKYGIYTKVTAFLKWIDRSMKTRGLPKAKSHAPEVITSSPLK
FXa, sequence (P00742 41-179 partner limits assumed): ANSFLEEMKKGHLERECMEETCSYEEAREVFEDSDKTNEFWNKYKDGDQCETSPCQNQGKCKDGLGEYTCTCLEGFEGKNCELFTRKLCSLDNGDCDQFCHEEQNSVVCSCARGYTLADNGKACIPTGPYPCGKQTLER

SMILES	IC50 (FXa) [nM]	IC50 (TF/FVIIa) [nM]
CN1CCC(C2CCN(C(=O)[C@H](NC(=O)Nc3ccc(Cl)cc3)c3ccccc3)CC2)CC1 [Compound 1, (R)-1-(4-chlorophenyl)-3-[2-(1′-methyl-4,4′-bipiperidinyl-1-yl)-2-oxo-1-phenylethyl]urea]	6	6.9
O=C(Nc1ccc(Cl)cc1)N[C@@H](C(=O)N1CCN(c2ccc(F)cc2)CC1)c1ccccc1 [Compound 2, (R)-1-(4-chlorophenyl)-3-{2-[4-(4-fluorophenyl)piperazin-1-yl]-2-oxo-1-phenylethyl}urea]	670	1700
CN1CCC(N2CCN(C(=O)[C@H](NC(=O)Nc3ccc(Cl)cc3)c3ccccc3)CC2)CC1 [Compound 5, (R)-1-(4-chlorophenyl)-3-{2-[4-(1-methylpiperidin-4-yl)piperazin-1-yl]-2-oxo-1-phenylethyl}urea bistrifluoroacetate]	17	6.3
CN1CCC(C2CCN(C(=O)[C@H](OC(=O)Nc3ccc(Cl)cc3)c3ccccc3)CC2)CC1 [Compound 49, 2-(1′-methyl-4,4′-bipiperidinyl-1-yl)-2-oxo-1-phenylethyl (R)-4-chlorophenyl)carbamate trifluoroacetate]	11	15
